# Measured values from ChEMBL document CHEMBL5316297, “Mechanistic Insight of Synthesized 1,4-Dihydropyridines as an Antidiabetic Sword against Reactive Oxygen Species” (J Med Chem, 2023).
# Tests used:
# [1] = Acute toxicity in Swiss albino mouse assessed as toxic symptoms up to 2000 mg/kg, po administered for 14 days; assay type: organism-based; details: in vivo, 336 h, time 14 day
# Mus musculus [2] = assay: Antidiabetic activity against high fat diet-STZ-induced diabetic Swiss albino mouse model assessed as reduction in blood glucose level at 0.2 mmol/Kg/day, po administered for 14 days relative to control; assay type: functional; set-up: scale not given: the % may be the effect or the level left; details: time 14 day
# Mus musculus [3] = assay: Antidiabetic activity against high fat diet-STZ-induced diabetic Swiss albino mouse model assessed as reduction in blood glucose level at 0.2 mmol/Kg/day, po administered for 14 days relative to glimepiride; assay type: functional; set-up: scale not given: the % may be the effect or the level left; details: time 14 day
# [4] = Toxicity in high fat diet-STZ-induced diabetic Swiss albino mouse model assessed as changes in body weight at 0.2 mmol/Kg/day, po administered for 14 days (reference value: 26.6 to 27.8 g); assay type: organism-based; details: in vivo, 336 h, time 14 day
# Mus musculus [5] = assay: Antidiabetic activity against high fat diet-STZ-induced diabetic Swiss albino mouse model assessed as reduction in blood glucose level at 0.2 mmol/Kg/day, po administered for 14 days; assay type: functional; details: time 14 day
# [6] = Acute toxicity in Swiss albino mouse assessed as effect on behavioural change up to 2000 mg/kg, po administered for 14 days; assay type: organism-based; details: in vivo, 336 h, time 14 day
# [7] = Acute toxicity in Swiss albino mouse assessed as effect on motor alterations up to 2000 mg/kg, po administered for 14 days; assay type: organism-based; details: in vivo, 336 h, time 14 day
# [8] = Acute toxicity in Swiss albino mouse assessed as effect on mortality up to 2000 mg/kg, po administered for 14 days; assay type: organism-based; details: in vivo, 336 h, time 14 day
Structure (SMILES),Activity [1],Activity (Mus musculus [2]),Activity (Mus musculus [3]),Activity [4],Activity (Mus musculus [5]),Activity [6],Activity [7],Activity [8]
CC1=C(C(=O)OC(C)(C)C)C(c2cccc3c2OCO3)C(C(=O)OC(C)(C)C)=C(C)N1,Non-Toxic,0.69%,<1%,29.3 g,296.14 mg/dL,Non-Toxic,Non-Toxic,Non-Toxic
CC1=C(C(=O)OC(C)C)C(c2ccc3c(c2)OCCO3)C(C(=O)OC(C)C)=C(C)N1,Non-Toxic,0.34%,1%,28.8 g,297.19 mg/dL,Non-Toxic,Non-Toxic,Non-Toxic
COC(=O)C1=C(C)NC(C)=C(C(=O)OC(C)C)C1c1cccc2c1OCO2 (centres undefined),Non-Toxic,20.11%,60%,28.9 g,238.23 mg/dL,Non-Toxic,Non-Toxic,Non-Toxic
COCCOC(=O)C1=C(C)NC(C)=C(C(=O)OCCOC)C1c1cccc2c1OCO2,Non-Toxic,30.11%,90%,27 g,208.41 mg/dL,Non-Toxic,Non-Toxic,Non-Toxic
COCCOC(=O)C1=C(C)NC(C)=C(C(=O)OC)C1c1cccc2c1OCO2 (centres undefined),Non-Toxic,13.4%,40%,28.3 g,258.24 mg/dL,Non-Toxic,Non-Toxic,Non-Toxic
CCOC(=O)C1=C(C)NC(C)=C(C(=O)OC(C)C)C1c1cccc2c1OCO2 (centres undefined),Non-Toxic,0.27%,<1%,28.9 g,297.39 mg/dL,Non-Toxic,Non-Toxic,Non-Toxic
CCOC(=O)C1=C(C)NC(C)=C(C(=O)OCc2ccccc2)C1c1cccc2c1OCO2 (centres undefined),Non-Toxic,44.22%,132%,27.2 g,166.34 mg/dL,Non-Toxic,Non-Toxic,Non-Toxic
COC(=O)C1=C(C)NC(C)=C(C(=O)OC(C)(C)C)C1c1ccc2c(c1)OCO2 (centres undefined),Non-Toxic,0.39%,<1%,29.1 g,297.04 mg/dL,Non-Toxic,Non-Toxic,Non-Toxic
COC(=O)C1=C(C)NC(C)=C(C(=O)OC)C1c1ccc2c(c1)OCCO2,Non-Toxic,48.62%,145%,27.3 g,153.21 mg/dL,Non-Toxic,Non-Toxic,Non-Toxic
COC(=O)C1=C(C)NC(C)=C(C(=O)OCc2ccccc2)C1c1ccc2c(c1)OCO2 (centres undefined),Non-Toxic,42.88%,128%,27.4 g,170.33 mg/dL,Non-Toxic,Non-Toxic,Non-Toxic
CCOC(=O)C1=C(C)NC(C)=C(C(=O)OCC)C1c1ccc2c(c1)OCCO2,Non-Toxic,49.58%,148%,26.8 g,150.35 mg/dL,Non-Toxic,Non-Toxic,Non-Toxic
CC1=C(C(=O)OCc2ccccc2)C(c2cccc3c2OCO3)C(C(=O)OCc2ccccc2)=C(C)N1,Non-Toxic,43.66%,129%,27.3 g,169.4 mg/dL,Non-Toxic,Non-Toxic,Non-Toxic
CCOC(=O)C1=C(C)NC(C)=C(C(=O)OCC)C1c1ccc2c(c1)Cc1ccccc1-2,Non-Toxic,0.42%,1%,29.3 g,296.94 mg/dL,Non-Toxic,Non-Toxic,Non-Toxic
CC1=C(C(=O)OC(C)(C)C)C(c2ccc3c(c2)OCO3)C(C(=O)OC(C)(C)C)=C(C)N1,,0.61%,<1%,26.9 g,296.38 mg/dL,,,
CCOC(=O)C1=C(C)NC(C)=C(C(=O)OC)C1c1cccc2c1OCO2 (centres undefined) [OXODIPINE],Non-Toxic,63.65%,190%,27.2 g,108.4 mg/dL,Non-Toxic,Non-Toxic,Non-Toxic
CCOC(=O)C1=C(C)NC(C)=C(C(=O)OCCOC)C1c1ccc2c(c1)OCO2 (centres undefined),Non-Toxic,43.89%,131%,27.2 g,167.32 mg/dL,Non-Toxic,Non-Toxic,Non-Toxic
COC(=O)C1=C(C)NC(C)=C(C(=O)OC)C1c1ccc2c(c1)Cc1ccccc1-2,Non-Toxic,0.41%,1%,29.2 g,296.98 mg/dL,Non-Toxic,Non-Toxic,Non-Toxic
CCOC(=O)C1=C(C)NC(C)=C(C(=O)OC)C1c1ccc2c(c1)OCO2 (centres undefined),Non-Toxic,53.6%,160%,27.4 g,138.36 mg/dL,Non-Toxic,Non-Toxic,Non-Toxic
CCOC(=O)C1=C(C)NC(C)=C(C(=O)OCCOC)C1c1cccc2c1OCO2 (centres undefined),Non-Toxic,44.89%,134%,27.2 g,164.33 mg/dL,Non-Toxic,Non-Toxic,Non-Toxic
COCCOC(=O)C1=C(C)NC(C)=C(C(=O)OCCOC)C1c1ccc2c(c1)OCO2,,30.11%,90%,27.4 g,208.41 mg/dL,,,
COC(=O)C1=C(C)NC(C)=C(C(=O)OC)C1c1cccc2c1OCO2,Non-Toxic,61.63%,184%,26.6 g,114.42 mg/dL,Non-Toxic,Non-Toxic,Non-Toxic
CC1=C(C(=O)OCc2ccccc2)C(c2ccc3c(c2)OCO3)C(C(=O)OCc2ccccc2)=C(C)N1,,37.86%,113%,27 g,185.3 mg/dL,,,
